Experiments:
[1] = tested on: metastatic cancer patients; assay: Clinical association analysis of drug response (RECIST criteria) on subjects treated with anticancer targeted drugs; type: in vivo, human; details: homozygous substitution alleles of ANXA11 rs1049550 and homozygous or heterozygous substitution alleles of LINS1 rs11247226; P=0.025, 0.019
Excerpt: (§1) The prediction of clinical outcomes of the corresponding patients was based on the NCCN surveillance guidelines (www.nccn.org), and the determination of chemosensitivity to anticancer drugs were based on the RECIST criteria (Therasse et al., J Natl Cancer Inst 2000; 92:205-16).

[2] = tested on: recurrent and metastatic colorectal cancer patients; assay: Clinical association analysis related to survival on subjects treated with anticancer targeted drugs; type: in vivo, human
Procedure: as §1
Association analysis was performed on the SNP genotypes sensitive to the individual anticancer drugs obtained in steps (1) and (2) in colorectal cancer patients whose treatment with the corresponding drugs was terminated.

## bevacizumab
[1]
  disease-control response rate, in words: significantly high disease-control response rate
[2]; homozygous or heterozygous substitution alleles of ITGA3 rs2230392 vs homozygous reference alleles
  sensitivity and survival, in words (FIG. 2): greater sensitivity and longer progression-free survival and overall survival
[2]; patients carrying homozygous or heterozygous substitution alleles of ITGA3 rs2230392, P=0.006 vs homozygous reference
  mean overall survival (OS): 22.5±2.1 months
[2]; patients carrying homozygous or heterozygous substitution alleles of ITGA3 rs2230392, P=0.018 vs homozygous reference
  mean progression-free survival (PFS): 8.7±0.7 months
[2]; patients with homozygous reference alleles of ITGA3 rs2230392, P=0.006
  mean overall survival (OS): 13.4±1.9 months
[2]; patients with homozygous reference alleles of ITGA3 rs2230392, P=0.018
  mean progression-free survival (PFS): 5.7±0.7 months
